Test results as given in ChEMBL document CHEMBL5104103 (J Med Chem, 2022).
pIC50: −log10 of the molar value.

Columns and labels:
[1] = target: T1, Cytoplasmic tyrosine-protein kinase BMX (Homo sapiens) (UniProt P51813); test: Displacement of competitive tracer from BMX (unknown origin) assessed as target occupancy at […] preincubated for 15 mins measured for 1 hr relative to control; conditions: dose 1.5 µM
T1 sequence (whole entry): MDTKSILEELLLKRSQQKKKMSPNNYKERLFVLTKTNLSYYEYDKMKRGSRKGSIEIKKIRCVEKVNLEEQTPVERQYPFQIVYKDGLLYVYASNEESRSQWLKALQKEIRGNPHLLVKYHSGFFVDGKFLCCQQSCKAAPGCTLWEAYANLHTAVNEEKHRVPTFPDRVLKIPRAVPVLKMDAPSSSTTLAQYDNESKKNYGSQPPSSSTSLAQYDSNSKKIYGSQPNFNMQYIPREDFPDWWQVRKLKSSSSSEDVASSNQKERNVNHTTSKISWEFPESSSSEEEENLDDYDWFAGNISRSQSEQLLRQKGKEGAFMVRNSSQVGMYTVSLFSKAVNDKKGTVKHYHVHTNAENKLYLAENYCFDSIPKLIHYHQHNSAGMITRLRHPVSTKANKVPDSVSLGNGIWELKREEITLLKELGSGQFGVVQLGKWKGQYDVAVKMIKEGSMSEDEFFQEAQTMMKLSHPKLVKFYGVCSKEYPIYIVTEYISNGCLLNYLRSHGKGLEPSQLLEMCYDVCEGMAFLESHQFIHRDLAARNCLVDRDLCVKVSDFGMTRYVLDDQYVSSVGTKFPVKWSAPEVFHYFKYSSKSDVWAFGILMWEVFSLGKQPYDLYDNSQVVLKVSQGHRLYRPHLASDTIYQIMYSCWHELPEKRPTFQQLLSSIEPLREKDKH

[2] = Drug concentration in plasma of collagen-induced arthritis Lewis rat model 30 mg/kg/day, po measured after 12 hrs post-collection of plasma; type: ADME, organism-based
[3] = Mutagenicity in Salmonella typhimurium by Ames test; type: toxicity; conditions: salmonella enterica subsp. enterica serovar typhimurium
[4] = Inhibition of EGF-stimulated AP-1 activation in human ME-180 cells by EGFR-based reporter assay; type: cell-based
[5] = target: Sodium-dependent dopamine transporter (Homo sapiens) (UniProt Q01959); test: Displacement of [3H]BTCP from recombinant human dopamine transporter DAT at 10 uM incubated for 120 mins by radiometric scintillation assay relative to control
Chain of Sodium-dependent dopamine transporter (Homo sapiens) (Q01959 whole entry): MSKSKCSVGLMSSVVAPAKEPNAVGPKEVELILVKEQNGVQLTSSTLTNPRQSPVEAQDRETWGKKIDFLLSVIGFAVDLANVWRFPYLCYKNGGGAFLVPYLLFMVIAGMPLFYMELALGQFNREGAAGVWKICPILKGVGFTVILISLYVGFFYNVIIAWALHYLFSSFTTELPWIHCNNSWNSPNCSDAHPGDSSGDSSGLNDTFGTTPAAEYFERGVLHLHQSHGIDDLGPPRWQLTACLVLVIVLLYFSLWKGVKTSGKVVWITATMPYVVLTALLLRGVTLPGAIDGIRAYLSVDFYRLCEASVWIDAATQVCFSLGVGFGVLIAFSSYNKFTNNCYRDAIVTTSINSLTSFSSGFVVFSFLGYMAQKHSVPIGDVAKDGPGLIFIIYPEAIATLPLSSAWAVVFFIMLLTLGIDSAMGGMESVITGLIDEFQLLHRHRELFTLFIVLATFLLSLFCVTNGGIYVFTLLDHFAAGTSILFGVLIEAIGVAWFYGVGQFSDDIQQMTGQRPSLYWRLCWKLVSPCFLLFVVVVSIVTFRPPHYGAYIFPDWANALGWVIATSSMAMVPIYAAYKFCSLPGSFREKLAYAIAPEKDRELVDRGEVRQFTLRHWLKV

[6] = target: Tyrosine-protein kinase Blk (Homo sapiens, UniProt P51451); test: Displacement of competitive tracer from BLK (unknown origin) assessed as target occupancy at […] preincubated for 15 mins measured for 6 hrs relative to control; conditions: dose 1.5 µM
Chain of Tyrosine-protein kinase Blk (P51451 2-505 limits assumed): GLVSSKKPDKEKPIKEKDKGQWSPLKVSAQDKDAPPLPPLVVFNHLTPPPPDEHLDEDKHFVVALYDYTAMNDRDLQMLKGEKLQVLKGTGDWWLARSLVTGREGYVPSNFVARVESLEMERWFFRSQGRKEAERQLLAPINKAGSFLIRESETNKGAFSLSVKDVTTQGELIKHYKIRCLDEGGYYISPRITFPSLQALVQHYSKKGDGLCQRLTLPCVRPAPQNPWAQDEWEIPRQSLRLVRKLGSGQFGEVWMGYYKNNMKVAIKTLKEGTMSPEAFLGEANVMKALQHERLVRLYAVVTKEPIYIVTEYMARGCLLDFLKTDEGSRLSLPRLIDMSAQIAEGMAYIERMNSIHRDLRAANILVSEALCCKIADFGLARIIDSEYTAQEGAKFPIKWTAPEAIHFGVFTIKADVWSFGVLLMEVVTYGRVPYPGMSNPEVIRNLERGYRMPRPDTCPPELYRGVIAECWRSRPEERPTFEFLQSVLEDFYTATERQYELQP

[7] = target: T1, Cytoplasmic tyrosine-protein kinase BMX (Homo sapiens); test: Displacement of competitive tracer from BMX (unknown origin) assessed as target occupancy at […] preincubated for 15 mins measured for 6 hrs relative to control; conditions: dose 1.5 µM
[8] = Drug concentration in plasma of collagen-induced arthritis Lewis rat model 30 mg/kg/day, po measured after 6 hrs post-collection of plasma; type: ADME, organism-based
[9] = Toxicity in female Beagle dog assessed as reduction in activity up to 400 mg/kg/day qd for 12 weeks; type: organism-based, Canis lupus familiaris; conditions: in vivo, 2016 h
[10] = Drug concentration in plasma of collagen-induced arthritis Lewis rat model 3 mg/kg/day, po measured after 12 hrs post-collection of plasma; type: ADME, organism-based; conditions: in vivo, BLD = below limit of detection
[11] = target: T2, Tyrosine-protein kinase TXK (Homo sapiens) (UniProt P42681); test: Displacement of competitive tracer from RLK (unknown origin) assessed as target occupancy at […] preincubated for 15 mins measured for 24 hrs relative to control; conditions: dose 1.5 µM
T2 sequence (whole entry): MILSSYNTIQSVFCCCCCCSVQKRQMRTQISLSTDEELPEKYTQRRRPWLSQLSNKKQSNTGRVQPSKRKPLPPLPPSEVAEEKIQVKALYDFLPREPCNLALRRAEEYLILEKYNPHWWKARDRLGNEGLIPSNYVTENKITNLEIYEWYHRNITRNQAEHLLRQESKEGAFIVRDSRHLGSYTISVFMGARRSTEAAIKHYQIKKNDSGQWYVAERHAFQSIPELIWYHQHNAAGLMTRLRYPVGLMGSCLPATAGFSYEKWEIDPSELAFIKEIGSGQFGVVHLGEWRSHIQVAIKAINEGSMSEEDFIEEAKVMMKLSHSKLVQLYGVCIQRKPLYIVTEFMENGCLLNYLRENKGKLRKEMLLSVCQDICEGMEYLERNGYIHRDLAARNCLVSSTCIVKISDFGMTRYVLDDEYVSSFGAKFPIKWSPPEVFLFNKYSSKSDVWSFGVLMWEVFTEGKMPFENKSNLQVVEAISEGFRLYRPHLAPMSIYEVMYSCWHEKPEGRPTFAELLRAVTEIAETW

[12] = target: T1, Cytoplasmic tyrosine-protein kinase BMX (Homo sapiens); test: Displacement of competitive tracer from BMX (unknown origin) assessed as target occupancy at […] preincubated for 15 mins measured for 24 hrs relative to control; conditions: dose 1.5 µM

CC(C)(C)/C=C(\C#N)C(=O)N1CCC[C@@H](n2nc(-c3ccc(Oc4ccccc4)cc3F)c3c(N)ncnc32)C1 [ATUZABRUTINIB]
Activity [1]: 90%
concentration at 12 h [2]: 51.8 ng/mL
Activity [3]: Non-Toxic
pIC50 [4]: < 5.30
inhibition [5]: > 50%
Activity [6]: 44%
Activity [7]: 82%
concentration at 6 h [8]: 111 ng/mL
Activity [9]: Toxic
Cp [10]: Bld
Activity [11]: 85%
Activity [12]: 69%
